Values quoted from earlier work in patent publication EP1556366B1, “PROCESS FOR THE E[…] OLEFINS” (Degussa AG, priority 2002, dated 2004).
Read-outs that look alike come from different tables or passages of the source.

Q: With `CN(C)C` [Me3N, trimethyl amine] as the molecule, how does the pkB read?
A: 4.26

Q: And the pkB (Table 2, nitrogen bases)?
A: 4.26

Q: What does the source list for `CN` [MeNH2, methyl amine]?
A: pkB: 3.36; pkB (Table 2, nitrogen bases): 3.36
